Results on two compounds are retold here after ChEMBL document CHEMBL1649229, “Efficacy of high doses of daptomycin versus alternative therapies against experimental foreign-body infection by methicillin-resistant Staphylococcus aureus” (Antimicrob Agents Chemother, 2009).

≈ marks a conversion by molar mass, not a printed value. Calls of active or inactive are those of the source. Some results are limits rather than exact numbers.

As usually defined, the AUC(0-inf) is the area under the concentration-time curve extrapolated to infinity. High values mean more exposure, low ones less exposure. Broadly, the AUC is the area under the concentration-time curve, a measure of exposure. Lower therefore signals low exposure. What is called Cmax is the maximum level reached in the sampled fluid or tissue. In general, MIC refers to the smallest concentration in the dilution series that meets the test's criterion for growth inhibition. By MBC is commonly meant the smallest concentration meeting the test's criterion for killing.

Data set [1] in a line: fT>MIC in methicillin-resistant Staphylococcus aureus HU 304 infected in Wistar rat at 45 mg/kg/day, ip for 7 days. It counts as functional. Particulars: route intraperitoneal.
A short description of data set [2]: AUC (0 to infinity) in serum of Wistar rat infected with methicillin-resistant Staphylococcus aureus HUSA 304 at 45 mg/kg/day, ip for 7 days. It counts as ADME, organism-based. On the set-up: dose 45 mg/kg/day, time infinity, route intraperitoneal.
The nature of data set [3]: AUC (0 to 24 hrs) in serum of human infected with methicillin-resistant Staphylococcus aureus HUSA 304 at 6 mg/kg/day, […]. It counts as ADME, organism-based. Set-up: time < 24 hr, dose 6 mg/kg/day.
The nature of data set [4]: Cmax in tissue cage fluid of Wistar rat infected with methicillin-resistant Staphylococcus aureus HUSA 304 at 70 mg/kg/day, ip. It counts as ADME, organism-based, Interstitial fluid. On the set-up: dose 70 mg/kg/day, route intraperitoneal.
The nature of data set [5]: Cmax in serum of Wistar rat infected with methicillin-resistant Staphylococcus aureus HUSA 304 at 45 mg/kg/day, ip for 7 days. It counts as ADME, organism-based. Set-up: dose 45 mg/kg/day, route intraperitoneal.
Data set [6] can be described thus: fT>MIC in methicillin-resistant Staphylococcus aureus HU 304 infected in Wistar rat at 70 mg/kg/day, ip for 7 days. It counts as functional. The settings on record: route intraperitoneal.
The test system of data set [7] is Staphylococcus aureus. Put plainly: Antimicrobial activity against log-phase methicillin-resistant Staphylococcus aureus HUSA 304 assessed as resistant bacteria on coverslip selected on 1 to 5 ug/ml of compound measured on day 11 post treatment in presence of 50 mg/L calcium ions. It counts as functional, organism-based.
Data set [8] in a line: Ratio of AUC (0 to infinity) in tissue cage fluid of Wistar rat infected with methicillin-resistant Staphylococcus aureus HUSA 304 at 70 mg/kg/day, ip to MIC for methicillin-resistant Staphylococcus aureus HUSA 304. It counts as functional. Particulars: route intraperitoneal.
Data set [9] is described as follows: AUC (0 to 24 hrs) in serum of human infected with methicillin-resistant Staphylococcus aureus HUSA 304 at 10 mg/kg/day, […]. It counts as ADME, organism-based. Set-up: dose 10 mg/kg/day, time < 24 hr.
The nature of data set [10]: AUC (0 to infinity) in serum of Wistar rat infected with methicillin-resistant Staphylococcus aureus HUSA 304 at 70 mg/kg/day, ip for 7 days. It counts as ADME, organism-based. On the set-up: dose 70 mg/kg/day, time infinity, route intraperitoneal.
Data set [11] can be described thus: AUC (0 to infinity) in tissue cage fluid of Wistar rat infected with methicillin-resistant Staphylococcus aureus HUSA 304 at 45 mg/kg/day, ip. Set-up: dose 45 mg/kg/day, time infinity, route intraperitoneal. It counts as ADME, organism-based.
The test system of data set [12] is Staphylococcus aureus. Put plainly: Antimicrobial activity against log-phase methicillin-resistant Staphylococcus aureus HUSA 304 selected on 1 to 5 ug/ml of compound measured after 5 days by M7-A6 method in presence of 50 mg/L calcium ions. It counts as functional. Particulars: HUSA 304, 120 h.
Data set [13] has as its system Staphylococcus aureus. Put plainly: Antimicrobial activity against log-phase methicillin-resistant Staphylococcus aureus HUSA 304 assessed as resistant bacteria in tissue cage fluid selected on 1 to 5 ug/ml of compound measured on day 11 post treatment in presence of 50 mg/L calcium ions. It counts as functional, organism-based.
Data set [14] deals with Staphylococcus aureus. Put plainly: Antimicrobial activity against log-phase methicillin-resistant Staphylococcus aureus HUSA 304 by M7-A6 method in presence of 50 mg/L calcium ions. It counts as functional.
The nature of data set [15]: Cmax in tissue cage fluid of Wistar rat infected with methicillin-resistant Staphylococcus aureus HUSA 304 at 45 mg/kg/day, ip. It counts as ADME, organism-based, Interstitial fluid. Set-up: dose 45 mg/kg/day, route intraperitoneal.
Data set [16] is described as follows: Cmax in serum of human infected with methicillin-resistant Staphylococcus aureus HUSA 304 at 6 mg/kg/day, […]. It counts as ADME, organism-based. Set-up: dose 6 mg/kg/day.
A short description of data set [17]: Cmax in serum of human infected with methicillin-resistant Staphylococcus aureus HUSA 304 at 8 mg/kg/day, […]. It counts as ADME, organism-based. On the set-up: dose 8 mg/kg/day, route intraperitoneal.
A short description of data set [18]: Cmax in tissue cage fluid of Wistar rat infected with methicillin-resistant Staphylococcus aureus HUSA 304 at 100 mg/kg/day, ip. It counts as ADME, organism-based, Interstitial fluid. Set-up: dose 100 mg/kg/day, route intraperitoneal.
Data set [19] is described as follows: fT>MIC in methicillin-resistant Staphylococcus aureus HU 304 infected in Wistar rat at 100 mg/kg/day, ip for 7 days. Particulars: route intraperitoneal. It counts as functional.
The subject of data set [20] is Staphylococcus aureus. In words: Antimicrobial activity against methicillin-resistant Staphylococcus aureus HUSA 304 infected in Wistar rat assessed as decrease in bacterial load in tissue cage fluid at 100 mg/kg/day, ip administered for 7 days measured on day 11 post treatment in presence of 50 mg/L calcium ions. It counts as functional. The settings on record: route intraperitoneal.

Data set [21] is described as follows: Ratio of Cmax in tissue cage fluid of Wistar rat infected with methicillin-resistant Staphylococcus aureus HUSA 304 at 45 mg/kg/day, ip to MIC for methicillin-resistant Staphylococcus aureus HUSA 304. It counts as functional. Particulars: route intraperitoneal.
A short description of data set [22]: AUC (0 to infinity) in tissue cage fluid of Wistar rat infected with methicillin-resistant Staphylococcus aureus HUSA 304 at 70 mg/kg/day, ip. It counts as ADME, organism-based. On the set-up: dose 70 mg/kg/day, time infinity, route intraperitoneal.
The nature of data set [23]: Cmax in serum of human infected with methicillin-resistant Staphylococcus aureus HUSA 304 at 10 mg/kg/day, […]. It counts as ADME, organism-based. On the set-up: dose 10 mg/kg/day, route intraperitoneal.
The subject of data set [24] is Staphylococcus aureus. In words: Antimicrobial activity against log-phase methicillin-resistant Staphylococcus aureus HUSA 304 assessed as resistant bacteria in tissue cage fluid selected on 1 to 5 ug/ml of compound measured on day 8 post treatment in presence of 50 mg/L calcium ions. It counts as functional, organism-based.
Data set [25] in a line: Cmax in serum of Wistar rat infected with methicillin-resistant Staphylococcus aureus HUSA 304 at 100 mg/kg/day, ip for 7 days. It counts as ADME, organism-based. Set-up: dose 100 mg/kg/day, route intraperitoneal.
The subject of data set [26] is Staphylococcus aureus. In words: Bactericidal activity against log-phase methicillin-resistant Staphylococcus aureus HUSA 304 after 24 hrs by time kill analysis. It counts as functional. The settings on record: HUSA 304, 24 h.
A short description of data set [27]: Ratio of AUC (0 to infinity) in tissue cage fluid of Wistar rat infected with methicillin-resistant Staphylococcus aureus HUSA 304 at 100 mg/kg/day, ip to MIC for methicillin-resistant Staphylococcus aureus HUSA 304. It counts as functional. Particulars: route intraperitoneal.
Data set [28] can be described thus: Ratio of AUC (0 to infinity) in tissue cage fluid of Wistar rat infected with methicillin-resistant Staphylococcus aureus HUSA 304 at 45 mg/kg/day, ip to MIC for methicillin-resistant Staphylococcus aureus HUSA 304. It counts as functional. Particulars: route intraperitoneal.
Data set [29] is described as follows: Cmax in serum of Wistar rat infected with methicillin-resistant Staphylococcus aureus HUSA 304 at 70 mg/kg/day, ip for 7 days. It counts as ADME, organism-based. On the set-up: dose 70 mg/kg/day, route intraperitoneal.
Data set [30] in a line: Ratio of Cmax in tissue cage fluid of Wistar rat infected with methicillin-resistant Staphylococcus aureus HUSA 304 at 70 mg/kg/day, ip to MIC for methicillin-resistant Staphylococcus aureus HUSA 304. It counts as functional. The settings on record: route intraperitoneal.
Data set [31] in a line: AUC (0 to infinity) in tissue cage fluid of Wistar rat infected with methicillin-resistant Staphylococcus aureus HUSA 304 at 100 mg/kg/day, ip. It counts as ADME, organism-based. On the set-up: dose 100 mg/kg/day, time infinity, route intraperitoneal.
A short description of data set [32]: Ratio of Cmax in tissue cage fluid of Wistar rat infected with methicillin-resistant Staphylococcus aureus HUSA 304 at 100 mg/kg/day, ip to MIC for methicillin-resistant Staphylococcus aureus HUSA 304. It counts as functional. The settings on record: route intraperitoneal.
Data set [33] can be described thus: AUC (0 to 24 hrs) in serum of human infected with methicillin-resistant Staphylococcus aureus HUSA 304 at 8 mg/kg/day, […]. It counts as ADME, organism-based. Set-up: dose 8 mg/kg/day, time < 24 hr.
Data set [34] can be described thus: AUC (0 to infinity) in serum of Wistar rat infected with methicillin-resistant Staphylococcus aureus HUSA 304 at 100 mg/kg/day, ip for 7 days. It counts as ADME, organism-based. On the set-up: dose 100 mg/kg/day, time infinity, route intraperitoneal.
The subject of data set [35] is Staphylococcus aureus. Put plainly: Antimicrobial activity against methicillin-resistant Staphylococcus aureus HUSA 304 infected in Wistar rat assessed as decrease in bacterial load in tissue cage fluid at 100 mg/kg/day, ip administered for 7 days measured on day 8 post treatment in presence of 50 mg/L calcium ions. It counts as functional. The settings on record: route intraperitoneal.

Data set [36] relates to Staphylococcus aureus. Put plainly: Bactericidal activity against stationary-phase methicillin-resistant Staphylococcus aureus HUSA 304 after 24 hrs by time kill analysis. It counts as functional. Particulars: HUSA 304, 24 h.
The test system of data set [37] is Staphylococcus aureus. In words: Bactericidal activity against stationary-phase methicillin-resistant Staphylococcus aureus HUSA 304 after 24 hrs by time kill analysis in presence of 50 mg/L calcium ions. It counts as functional. The settings on record: HUSA 304, 24 h.
For data set [38], the system named is Staphylococcus aureus. In words: Bactericidal activity against log-phase methicillin-resistant Staphylococcus aureus HUSA 304 after 24 hrs by time kill analysis in presence of 50 mg/L calcium ions. It counts as functional. The settings on record: HUSA 304, 24 h.

Consider `CCCCCCCCCC(=O)N[C@@H](Cc1c[nH]c2ccccc12)C(=O)N[C@H](CC(N)=O)C(=O)N[C@@H](CC(=O)O)C(=O)N[C@@H]1C(=O)NCC(=O)N[C@@H](CCCN)C(=O)N[C@@H](CC(=O)O)C(=O)N[C@H](C)C(=O)N[C@@H](CC(=O)O)C(=O)NCC(=O)N[C@H](CO)C(=O)N[C@@H]([C@H](C)CC(=O)O)C(=O)N[C@@H](CC(=O)c2ccccc2N)C(=O)O[C@@H]1C`, for which the “fT>MIC” value in data set [1], in data set [6] and in data set [19] was 100% each time. Further, the AUC(0-inf) in data set [2] was 830 µg·h/mL; in [10], 984 µg·h/mL; in data set [11] it was 795 µg·h/mL; in [22], 953 µg·h/mL; in [31], 1100 µg·h/mL; in data set [34], 1200 µg·h/mL. Also, the AUC at 24 h in data set [3] came out at 730 µg·h/mL; in data set [9] it was 1010 µg·h/mL; in data set [33] it was 773 µg·h/mL. The Cmax is 34 µg/mL in data set [4]; 103 µg/mL in [5]; 26 µg/mL in data set [15]; 95 µg/mL in data set [16]; 106 µg/mL in data set [17]; 40 µg/mL in [18]. Further, the values for the Cmax in data set [23], in data set [25] and in [29] were 130 µg/mL, 140 µg/mL and 128 µg/mL, respectively. For the same compound, the result in the data set with Staphylococcus aureus [7], with Staphylococcus aureus [13] and in the data set with Staphylococcus aureus [24] was Active. The RatioAUC/MIC in [8] is on record as 953; in data set [27] it was 1100; in [28], 795. Also, the minimal inhibitory concentration (MIC) in the data set on Staphylococcus aureus [12] and with Staphylococcus aureus [14] was 1 µg/mL each time. The values for the log10cfu with Staphylococcus aureus [20] and in the data set with Staphylococcus aureus [35] were 2.57 and 2.26, respectively. In addition, the Ratio is listed as 26 in [21], 34 in [30] and 40 in [32]. For the same compound, the MBC is 4 µg/mL (≈ 2.47 µM) against Staphylococcus aureus [26] and 24 µg/mL (≈ 14.8 µM) against Staphylococcus aureus [36].
For `CN[C@H](CC(C)C)C(=O)N[C@H]1C(=O)N[C@@H](CC(N)=O)C(=O)N[C@H]2C(=O)N[C@H]3C(=O)N[C@H](C(=O)N[C@H](C(=O)O)c4cc(O)cc(O)c4-c4cc3ccc4O)[C@H](O)c3ccc(c(Cl)c3)Oc3cc2cc(c3O[C@@H]2O[C@H](CO)[C@@H](O)[C@H](O)[C@H]2O[C@H]2C[C@](C)(N)[C@H](O)[C@H](C)O2)Oc2ccc(cc2Cl)[C@H]1O` [VANCOMYCIN], the MBC in the data set on Staphylococcus aureus [37] was more than 32 µg/mL; in the data set on Staphylococcus aureus [38], 4 µg/mL.
